Results from ChEMBL document CHEMBL1629546 (Antimicrob Agents Chemother, 2008).
Converted amounts (≈) assume the structure as drawn. The source made the active and inactive calls. No cut-off for these calls is given here.

How the values were obtained:
Bacillus anthracis [1] = details: in vivo
Bacillus anthracis [2] = test: Antimicrobial activity against Bacillus anthracis infected in in vitro hollow fiber PK/PD model assessed as bacterial regrowth at 100 mg administered once every 24 hrs; assay type: functional, organism-based
Bacillus anthracis [3] = test: Antimicrobial activity against Bacillus anthracis infected in in vitro hollow fiber PK/PD model assessed as bacterial regrowth at 200 mg administered once every 24 hrs; assay type: functional, organism-based
Bacillus anthracis [4] = test: Antimicrobial activity against Bacillus anthracis infected in in vitro hollow fiber PK/PD model assessed as bacterial regrowth at 300 mg administered once every 24 hrs; assay type: functional, organism-based
Bacillus anthracis [5] = test: Antimicrobial activity against Bacillus anthracis infected in in vitro hollow fiber PK/PD model assessed as bacterial regrowth at 400 mg administered once every 24 hrs; assay type: functional, organism-based
Bacillus anthracis [6] = test: Antimicrobial activity against Bacillus anthracis infected in in vitro hollow fiber PK/PD model assessed as bacterial regrowth at 500 mg administered once every 24 hrs; assay type: functional, organism-based
Bacillus anthracis [7] = test: Antimicrobial activity against Bacillus anthracis infected in in vitro hollow fiber PK/PD model assessed as bacterial regrowth at 600 mg administered once every 24 hrs; assay type: functional, organism-based
Bacillus anthracis [8] = test: Antimicrobial activity against Bacillus anthracis infected in in vitro hollow fiber PK/PD model assessed as prevention of bacterial regrowth at 700 mg administered once every 24 hrs; assay type: functional, organism-based
Bacillus anthracis [9] = test: Antimicrobial activity against Bacillus anthracis infected in in vitro hollow fiber PK/PD model assessed as prevention of bacterial regrowth at 800 mg administered once every 24 hrs; assay type: functional, organism-based
Bacillus anthracis [10] = test: Antimicrobial activity against Bacillus anthracis infected in in vitro hollow fiber PK/PD model assessed as cell killing at 200 mg administered once every 24 hrs; assay type: functional, organism-based
Bacillus anthracis [11] = test: Antimicrobial activity against Bacillus anthracis infected in in vitro hollow fiber PK/PD model assessed as cell killing at 300 mg administered once every 24 hrs; assay type: functional, organism-based
Bacillus anthracis [12] = test: Antimicrobial activity against Bacillus anthracis infected in in vitro hollow fiber PK/PD model assessed as cell killing at 400 mg administered once every 24 hrs; assay type: functional, organism-based
Bacillus anthracis [13] = test: Antimicrobial activity against Bacillus anthracis infected in in vitro hollow fiber PK/PD model assessed as reduction in bacterial burden at 700 mg administered once every 24 hrs; assay type: functional, organism-based
Bacillus anthracis [14] = test: Antimicrobial activity against Bacillus anthracis infected in in vitro hollow fiber PK/PD model assessed as bacterial killing at 800 mg administered once every 24 hrs; assay type: functional, organism-based
Bacillus anthracis [15] = test: Antimicrobial activity against Bacillus anthracis infected in in vitro hollow fiber PK/PD model assessed as cell killing at 800 mg administered as 4 divided doses every 6 hrs; assay type: functional, organism-based
Bacillus anthracis [16] = test: Antimicrobial activity against Bacillus anthracis infected in in vitro hollow fiber PK/PD model assessed as cell killing at 800 mg administered as 2 divided doses every 12 hrs; assay type: functional, organism-based
Bacillus anthracis [17] = test: Antimicrobial activity against Bacillus anthracis infected in in vitro hollow fiber PK/PD model assessed as cell killing at 800 mg administered once every 24 hrs; assay type: functional, organism-based
Bacillus anthracis [18] = test: Antimicrobial activity against wild-type Bacillus anthracis; assay type: functional
Bacillus anthracis [19] = test: Antimicrobial activity against Bacillus anthracis infected in in vitro hollow fiber PK/PD model assessed as bacterial killing at 500 mg administered once every 24 hrs for 15 days; assay type: functional, organism-based
Bacillus anthracis [20] = test: Antimicrobial activity against Bacillus anthracis infected in in vitro hollow fiber PK/PD model assessed as bacterial killing at 600 mg administered once every 24 hrs for 15 days; assay type: functional, organism-based
Bacillus anthracis [21] = details: in vivo, 24 h
Bacillus anthracis [22] = details: in vivo, 24 h; remark: listed apart in the source
Bacillus anthracis [23] = details: in vivo, 24 h; remark: listed apart in the source
Bacillus anthracis [24] = details: in vivo, 24 h; remark: listed apart in the source
Bacillus anthracis [25] = details: in vivo, 24 h; remark: listed apart in the source
Bacillus anthracis [26] = details: in vivo, 24 h; remark: listed apart in the source
Bacillus anthracis [27] = details: in vivo, 24 h; remark: listed apart in the source
Bacillus anthracis [28] = details: in vivo, 24 h; remark: listed apart in the source
Bacillus anthracis [29] = details: in vivo, 24 h; remark: listed apart in the source
Bacillus anthracis [30] = details: in vivo; remark: listed apart in the source
Bacillus anthracis [31] = details: in vivo; remark: listed apart in the source
Bacillus anthracis [32] = details: in vivo, 24 h; remark: listed apart in the source
Bacillus anthracis [33] = details: in vivo; remark: listed apart in the source
Bacillus anthracis [34] = details: in vivo; remark: listed apart in the source
Bacillus anthracis [35] = details: in vivo, 24 h; remark: listed apart in the source
Bacillus anthracis [36] = details: in vivo, 24 h; remark: listed apart in the source
Bacillus anthracis [37] = details: in vivo; remark: listed apart in the source
Bacillus anthracis [38] = details: in vivo; remark: listed apart in the source
Bacillus anthracis [39] = details: in vivo; remark: listed apart in the source
Bacillus anthracis [40] = details: in vivo; remark: listed apart in the source
Bacillus anthracis [41] = details: in vivo; remark: listed apart in the source
Bacillus anthracis [42] = details: in vivo, 24 h; remark: listed apart in the source

O=C(O)c1cn(C2CC2)c2cc(N3CCNCC3)c(F)cc2c1=O [CIPROFLOXACIN]
fAUC (Bacillus anthracis [1]): 22356 ng·h/mL

CC(=O)NC[C@H]1CN(c2ccc(N3CCOCC3)c(F)c2)C(=O)O1 [LINEZOLID]
Activity (Bacillus anthracis [2]): Active | Activity (Bacillus anthracis [3]): Active | Activity (Bacillus anthracis [4]): Active | Activity (Bacillus anthracis [5]): Active | Activity (Bacillus anthracis [6]): Active | Activity (Bacillus anthracis [7]): Active | Activity (Bacillus anthracis [8]): Active | Activity (Bacillus anthracis [9]): Active | Activity (Bacillus anthracis [10]): Active | Activity (Bacillus anthracis [11]): Active | Activity (Bacillus anthracis [12]): Active | Activity (Bacillus anthracis [13]): Active | Activity (Bacillus anthracis [14]): Active | Activity (Bacillus anthracis [15]): Active | Activity (Bacillus anthracis [16]): Active | Activity (Bacillus anthracis [17]): Active | MIC (Bacillus anthracis [18]): 3 µg/mL (≈ 8.89 µM) | Activity (Bacillus anthracis [19]): Active | Activity (Bacillus anthracis [20]): Active | fAUC (Bacillus anthracis [21]): 11249 ng·h/mL | fAUC (Bacillus anthracis [22]): 22498 ng·h/mL | fAUC (Bacillus anthracis [23]): 33746 ng·h/mL | fAUC (Bacillus anthracis [24]): 45553 ng·h/mL | fAUC (Bacillus anthracis [25]): 56283 ng·h/mL | fAUC (Bacillus anthracis [26]): 71422 ng·h/mL | fAUC (Bacillus anthracis [27]): 78508 ng·h/mL | fAUC (Bacillus anthracis [28]): 90106 ng·h/mL | fAUC (Bacillus anthracis [29]): 56283 ng·h/mL | fAUC (Bacillus anthracis [30]): 56258 ng·h/mL | fAUC (Bacillus anthracis [31]): 56245 ng·h/mL | fAUC (Bacillus anthracis [32]): 71422 ng·h/mL | fAUC (Bacillus anthracis [33]): 71300 ng·h/mL | fAUC (Bacillus anthracis [34]): 71540 ng·h/mL | fAUC (Bacillus anthracis [35]): 91106 ng·h/mL | fAUC (Bacillus anthracis [36]): 91106 ng·h/mL | fAUC (Bacillus anthracis [37]): 91216 ng·h/mL | fAUC (Bacillus anthracis [38]): 91284 ng·h/mL | fAUC (Bacillus anthracis [39]): 36244 ng·h/mL | fAUC (Bacillus anthracis [40]): 74371 ng·h/mL | fAUC (Bacillus anthracis [1]): 90081 ng·h/mL | fAUC (Bacillus anthracis [41]): 115702 ng·h/mL | fAUC (Bacillus anthracis [42]): 78508 ng·h/mL
